Patent publication US20050209278A1, “Piperidinyl- and piperazinyl-sulfonylmethyl hydroxamic acids and their use as protease inhibitors” (priority 2002, published 2005)

Assays:
Type in all cases: biochemical
MMP-2 [1] = biological target: T1, MMP-2 (Homo sapiens, UniProt P08253); assay: In vitro MMP inhibition, Ki determination (fluorogenic substrate II); conditions: read-out: MMP-2 Ki
T1 construct: made in house; host or cells: MMP-2-transfected p2AHT2 cells
T1 sequence (P08253 110-660): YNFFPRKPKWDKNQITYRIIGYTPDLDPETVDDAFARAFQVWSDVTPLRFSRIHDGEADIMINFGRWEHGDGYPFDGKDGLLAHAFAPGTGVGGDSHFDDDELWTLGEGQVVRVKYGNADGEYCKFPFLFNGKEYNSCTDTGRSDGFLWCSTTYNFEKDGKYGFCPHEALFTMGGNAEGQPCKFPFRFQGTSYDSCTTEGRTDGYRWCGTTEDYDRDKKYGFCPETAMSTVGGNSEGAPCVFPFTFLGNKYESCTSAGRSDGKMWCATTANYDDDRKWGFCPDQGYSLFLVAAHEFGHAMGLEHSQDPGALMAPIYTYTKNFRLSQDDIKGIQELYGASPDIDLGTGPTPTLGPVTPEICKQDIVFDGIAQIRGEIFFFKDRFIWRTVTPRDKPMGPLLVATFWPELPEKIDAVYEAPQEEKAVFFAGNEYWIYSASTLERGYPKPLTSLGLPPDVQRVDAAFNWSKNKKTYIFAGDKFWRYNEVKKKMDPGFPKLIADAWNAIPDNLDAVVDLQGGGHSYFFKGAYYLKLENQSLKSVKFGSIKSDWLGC
Method: (§1) Several hydroxamic acids and salts thereof were analyzed in in vitro assays to determine their ability to inhibit the MMP cleavage of peptide substrates. […] and IC50 constants were calculated from the assayed hydroxamic acid-MMP interactions.
(§2) Human recombinant MMP-1, MMP-2, MMP-9, MMP-13, and MMP-14 were used in this assay. All enzymes were prepared in Assignee's laboratories following usual laboratory procedures. Protocols for the preparation and use of these enzymes are available in the scientific literature. See, e.g., Enzyme Nomenclature (Academic Press, San Diego, Calif., 1992) (and the citations therein). See also, Freije et al., “Molecular cloning and expression of collagenase-3, a novel human matrix metalloproteinase produced by breast carcinomas,” J Biol. Chem., 269(24), 16766-16773 (1994).
The MMP-2 proenzyme was purified by gelatin Sepharose chromatography from MMP-2-transfected p2AHT2 cells provided by Dr. Gregory Goldberg of Washington University (St. Louis, Mo.).
(§3) All MMPs were activated using 4-aminophenylmercuric acetate (“APMA”, Sigma Chemical, St. Louis, Mo.) or trypsin. MMP-9 also was activated using human recombinant MMP-3 (purified in Assignee's laboratory following standard cloning and purification techniques).
(§4) Two fluorogenic, methoxycoumarin-containing polypeptide substrates were used in the MMP inhibition assays: [drawing 427] Here, “Dpa” is 3-(2,4-dinitrophenyl)-L-2,3-diaminopropionyl group, and “MCA” is 7-methoxycoumarin-4-yl acetyl. Substrate (I) was purchased from Baychem (Redwood City, Calif.), and substrate II was prepared Assignee's laboratory. Substrate I was used in the IC50 determination assays, while substrate II was used in the Ki determination assays. In the absence of MMP inhibitory activity, either substrate is cleaved at the Gly-Leu peptide bond. This cleavage separates the highly fluorogenic peptide from the 2,4-dinitrophenyl quencher, thus resulting in increase of fluorescent intensity.
(§5) The stock solutions of the assayed hydroxamic acids (or salts thereof) were prepared in 1% dimethyl sulfoxide (DMSO). These stock solutions were diluted in Buffer A (100 mM Tris-HCl, 100 mM NaCl, 10 mM CaCl2, 0.05% polyoxyethylene 23 lauryl ether, pH 7.5) to obtain solutions with different hydroxamic acid concentrations, i.e., assay solutions with different concentrations of the assayed MMP inhibitory compound. The experiment controls contained the same amount of Buffer A/DMSO as the assayed sample, but contained no hydroxamic acid (or salt thereof).
The assays from which the Ki determinations were made were performed as follows. The assayed hydroxamic acid samples were incubated in separate wells of untreated white polystyrene plates (Nunc Nalgene International, Rochester, N.Y.), and analyzed on a Tecan SpectraFlour Plus plate reader. The excitation wavelength was 330 nm, and the emission wavelength—420 nm. All samples (assayed hydroxamic acids and controls) were incubated in separate plate wells at room temperature for 1 hr in the presence of 4 μM of MMP substrate (II). In the absence of MMP inhibitory activity, substrate II was cleaved at the Gly-Leu bond resulting in an increase of relative fluorescence. Inhibition was observed as a reduced rate of this increase in relative fluorescence. The various hydroxamic acids were analyzed using a single low enzyme concentration with a single substrate concentration fixed at or below the Km. This protocol is a modification of method by Knight et al., FEBS Lett., 296(3), 263-266 (1992). Apparent inhibitory constants were determined by non-linear regression of reaction velocity as a function of inhibitor and enzyme concentration using Morrison's equation, as described by Kuzmic, Anal. Biochem. 286, 45-50 (2000). […] Since the substrate concentration was chosen to be at or below the Km, the apparent Ki's from this analysis were reported as Ki's without correction for the influence of substrate.

MMP-13 [2] = biological target: T2, MMP-13 (Homo sapiens, UniProt P45452); assay: as above; conditions: read-out: MMP-13 Ki
T2 construct: made in house; host or cells: baculovirus / insect cells
Method: as §1, §2
The MMP-13 was obtained as a proenzyme from a full-length cDNA clone using baculovirus, as described by V. A. Luckow, “Insect Cell Expression Technology,” Protein Engineering: Principles and Practice, pp. 183-218 (edited by J. L. Cleland et al., Wiley-Liss, Inc., 1996). The expressed proenzyme was first purified over a heparin agarose column, and then over a chelating zinc chloride column. The proenzyme was then activated by APMA for use in the assay. […] See also, O'Reilly et al, Baculovirus Expression Vectors: A Laboratory Manual (W.H. Freeman and Co., New York, N.Y., 1992). See also, King et al., The Baculovirus Expression System: A Laboratory Guide (Chapman & Hall, London, England, 1992).
as §3, §4, §5
The assays from which the Ki determinations were made were performed as follows. The assayed hydroxamic acid samples were incubated in separate wells of untreated white polystyrene plates (Nunc Nalgene International, Rochester, N.Y.), and analyzed on a Tecan SpectraFlour Plus plate reader. The excitation wavelength was 330 nm, and the emission wavelength—420 nm. All samples (assayed hydroxamic acids and controls) were incubated in separate plate wells at room temperature for 1 hr in the presence of 4 μM of MMP substrate (II). In the absence of MMP inhibitory activity, substrate II was cleaved at the Gly-Leu bond resulting in an increase of relative fluorescence. Inhibition was observed as a reduced rate of this increase in relative fluorescence. The various hydroxamic acids were analyzed using a single low enzyme concentration with a single substrate concentration fixed at or below the Km.

MMP-1 = biological target: T3, MMP-1 (Homo sapiens, UniProt P03956); assay: MMP-1 inhibition (in vitro Ki); conditions: Table 8; read-out: MMP-1 Ki
T3 construct: made in house; host or cells: MMP-1-transfected HT-1080 cells (spent media)
T3 sequence (P03956 100-469): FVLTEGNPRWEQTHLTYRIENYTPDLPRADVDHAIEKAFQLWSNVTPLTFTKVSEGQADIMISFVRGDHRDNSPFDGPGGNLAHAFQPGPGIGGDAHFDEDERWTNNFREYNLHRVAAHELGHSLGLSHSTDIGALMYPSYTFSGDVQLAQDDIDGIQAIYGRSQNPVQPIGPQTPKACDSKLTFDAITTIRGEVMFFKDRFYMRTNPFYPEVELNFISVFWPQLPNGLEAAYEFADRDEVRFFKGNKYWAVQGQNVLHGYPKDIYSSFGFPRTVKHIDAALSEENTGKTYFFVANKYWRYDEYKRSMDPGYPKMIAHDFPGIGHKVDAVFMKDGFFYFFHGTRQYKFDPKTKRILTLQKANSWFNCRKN

MMP-2 [3] = biological target: T1, MMP-2; assay: MMP-2 inhibition (in vitro Ki); conditions: Table 8; read-out: MMP-2 Ki
MMP-9 = biological target: T4, MMP-9 (Homo sapiens, UniProt P14780); assay: MMP-9 inhibition (in vitro Ki); conditions: Table 8; read-out: MMP-9 Ki
T4 construct: made in house; host or cells: MMP-9-transfected HT1080 cells (spent media)
T4 sequence (P14780 107-707 limits assumed): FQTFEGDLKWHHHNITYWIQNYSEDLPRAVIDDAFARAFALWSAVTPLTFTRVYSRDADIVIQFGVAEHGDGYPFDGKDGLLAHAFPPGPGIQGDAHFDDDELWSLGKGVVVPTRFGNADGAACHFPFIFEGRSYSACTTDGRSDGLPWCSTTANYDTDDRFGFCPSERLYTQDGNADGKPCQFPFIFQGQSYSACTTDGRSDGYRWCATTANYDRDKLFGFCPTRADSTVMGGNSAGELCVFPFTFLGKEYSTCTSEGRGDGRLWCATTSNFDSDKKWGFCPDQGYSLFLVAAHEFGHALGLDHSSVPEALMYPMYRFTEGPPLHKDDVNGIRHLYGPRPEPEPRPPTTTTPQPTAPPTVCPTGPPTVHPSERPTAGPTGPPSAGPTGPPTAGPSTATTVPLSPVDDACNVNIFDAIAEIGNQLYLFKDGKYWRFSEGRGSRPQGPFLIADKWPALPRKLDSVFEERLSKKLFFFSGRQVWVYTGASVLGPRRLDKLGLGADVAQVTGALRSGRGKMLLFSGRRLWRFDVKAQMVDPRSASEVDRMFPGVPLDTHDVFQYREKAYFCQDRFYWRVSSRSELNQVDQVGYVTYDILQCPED

MMP-13 [4] = biological target: T2, MMP-13; assay: MMP-13 inhibition (in vitro Ki); conditions: Table 8; read-out: MMP-13 Ki
MMP-14 = biological target: T5, MMP-14 (Homo sapiens, UniProt P50281); assay: MMP-14 inhibition (in vitro Ki); conditions: Table 8; read-out: MMP-14 Ki
T5 construct: The catalytic domain enzyme was expressed in E. coli inclusion bodies, solubilized in urea; made in house

| Compound | Ki (MMP-2 [1]; value not in parenthesis) | Ki (MMP-13 [2]; value not in parenthesis) | Ki (MMP-2 [1]; value outside parentheses) | Ki (MMP-13 [2]; value outside parentheses) | Ki (MMP-1) | Ki (MMP-2 [3]) | Ki (MMP-9) | Ki (MMP-13 [4]) | Ki (MMP-14) |
| --- | --- | --- | --- | --- | --- | --- | --- | --- | --- |
| CCc1ccc(N2CCN(S(=O)(=O)C3(C(=O)NO)CCOCC3)CC2)nc1 [Example 137] | 0.37 nM | 0.75 nM | – | – | – | – | – | – | – |
| Cc1cccc(-c2csc(N3CCN(S(=O)(=O)C4(C(=O)NO)CCOCC4)CC3)n2)c1 [Example 414] | – | – | 2660 nM | 4190 nM | – | – | – | – | – |
| CCCCCOC1CCN(S(=O)(=O)C2(C(=O)NO)CCOCC2)CC1 [Example A36A] | – | – | – | – | > 10000 nM | 6 nM | 2.65 nM | 9.36 nM | 816 nM |
| CCCCCCCCOC1CCN(S(=O)(=O)C2(C(=O)NO)CCOCC2)CC1 [Example A36B] | – | – | – | – | > 10000 nM | 1.87 nM | 1.34 nM | 0.63 nM | 1080 nM |
| CCCCC=CCCOC1CCN(S(=O)(=O)C2(C(=O)NO)CCOCC2)CC1 [Example A36C] | – | – | – | – | > 10000 nM | 3.93 nM | 3.41 nM | 1.22 nM | 1900 nM |
| CC(C)CCCOC1CCN(S(=O)(=O)C2(C(=O)NO)CCOCC2)CC1 [Example A36D] | – | – | – | – | > 10000 nM | 11.9 nM | 39.1 nM | 19.9 nM | 4060 nM |

Results, then the compound that gave them:

| Ki (MMP-2 [1]; value not in parenthesis) | Ki (MMP-13 [2]; value not in parenthesis) | Ki (MMP-2 [1]; value outside parentheses) | Ki (MMP-13 [2]; value outside parentheses) | Ki (MMP-1) | Ki (MMP-2 [3]) | Ki (MMP-9) | Ki (MMP-13 [4]) | Ki (MMP-14) | Compound |
| --- | --- | --- | --- | --- | --- | --- | --- | --- | --- |
| – | – | – | – | 5290 nM | 2.22 nM | 2.68 nM | 0.28 nM | 1710 nM | O=C(NO)C1(S(=O)(=O)N2CCC(CCCCCOCC(F)(F)F)CC2)CCOCC1 [Example A35, 4-{4-[5-(2,2,2-trifluoro-ethoxy)-pentyl]-piperidine-1-sulfonyl}-tetrahydro-pyran-4-carboxylic Acid Hydroxyamide] |
| – | – | – | – | > 10000 nM | 3.51 nM | 0.95 nM | 5.92 nM | 1940 nM | CCCCCCOC1CCN(S(=O)(=O)C2(C(=O)NO)CCOCC2)CC1 [Example A36, 4-(4-hexyloxy-piperidine-1-sulfonyl)-tetrahydro-pyran-4-carboxylic Acid Hydroxyamide] |
